The results in this text go back to patent US20250332173A1, “COMPOUNDS AND METHODS FOR MODULATING NUCLEIC ACID SPLICING” (REMIX THERAPEUTICS INC., priority 2021, published 2025).

Like-named read-outs stand apart in the source and are kept apart here.

Assay [1] concerns HTT mRNA. Put plainly: RT-qPCR splicing assay, HTT canonical junction (CJ) and alternative junction (AJ) mRNA. The assay is classed as cell-based, human. Particulars: Homo sapiens; for AC50: increase in HTT alternative junction (AJ) mRNA, read-out: HTT AJ AC50. In a few lines:
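Following a 24-hour incubation of A673 or K562 cells with serially diluted compound (3-fold steps, highest final 10 uM), the lysates undergo cDNA synthesis plus qPCR. Canonical and alternative junctions are each quantified against PPIA, GAPDH or GUSB.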
Background: In qPCR the cycle at which signal appears reflects the starting amount.

The subject of assay [2] is SMN2 mRNA. Put plainly: RT-qPCR splicing assay, SMN2 canonical junction (CJ) mRNA. The assay is classed as cell-based, human. Conditions: Homo sapiens; Table 5 panel; canonical junction qPCR; compound concentration having 50% response in CJ decrease; read-out: SMN2 IC50 (decrease in CJ mRNA levels). In a few lines:
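Canonical exon-exon junction transcript levels measured by one-step RT-qPCR of cell lysates, normalized to a housekeeping gene (GAPDH, GUSB or PPIA). Cells used were A673 or K562, exposed for 24 h to compound in 11-point, 3-fold series from 10 uM, with final DMSO at or below 0.25%.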

The test system of assay [3] is Target C. Briefly: HiBiT protein abundance assay, Target C (Promega Nano-Glo HiBiT Lytic Detection System, knock-in K562 cell line). The assay is classed as cell-based, human. Conditions: Homo sapiens, K562, 24 h, HiBiT K562 cell line, 24 hours, top dose 10 μM; read-out: Effect on protein abundance, Target C (IC50 category). In a few lines: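 HiBiT knock-in K562 cells (10,000/well) were treated for 24 h at 37 °C with a 10-point 3-fold dilution series, top final concentration 10 μM, DMSO ≤0.25%. Lytic HiBiT luminescence was read, normalized to unmodified K562 and DMSO-treated controls, and IC50 was interpolated from a four-parameter logistic fit.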

For assay [4], the system named is K562 (human chronic myelogenous leukemia) cells. Put plainly: Cell Titer Glo 2.0 cell viability assay. Format: cell-based. Conditions: Homo sapiens, K562, 72 h, K562 cells, 72 hours, Cell Titer Glo 2.0; read-out: K562 GI50. For orientation: In ATP-based viability assays light output follows the ATP content of the culture.
Experimental: Compounds described herein were screened for toxicity in K562 (human chronic myelogenous leukemia) cells using a Cell Titer Glo 2.0 assay.
Cells were plated at 500 cells/well (K562 cells) in 45 μL of IMDM supplemented with 1000 FBS in a 384-well opaque plate. Wells containing only medium were used as a blank control. Test compounds (e.g., compounds ofFormula (I), (II), (III), (IV), (V), (VI), (VII), (VIII), and (IX)) were first serially diluted in DMSO then diluted 1:100 with IMDM+10% FBS. The final concentration of DMSO was 0.1% in each well. The cells were incubated for 72 hours at 37° C. and 500 CO2 before assaying with Cell Titer Glo 2.0 reagent.
[5] abbreviates: decrease in HTT canonical junction (CJ) mRNA, RT-qPCR, read-out: HTT CJ IC50.
Setting [6] is: Table 5 panel, canonical junction qPCR, compound concentration having 50% response in CJ decrease, read-out: HTT IC50 (decrease in CJ mRNA levels).

On to `Cc1cn2nc(-c3cc(F)c4c(=O)n(C5CCNCC5)cnc4c3)cc(C)c2n1` [Compound 243], for which the IC50 in assay [1] (setting [5]), in assay [1] (setting [6]), in assay [2] and in assay [3] was below 100 nM throughout. Also, in assay [1] (RT-qPCR), the AC50 (usually the midpoint of the concentration-response curve, whichever way the signal moves) was below 100 nM. Moreover, the GI50 (as a rule, the concentration at which growth is held to half of that of the control) in assay [4] was below 100 nM.
For the molecule `Cc1cn2cc(-c3ccc4c(=O)n(C5CCNCC5)cnc4c3)c(C)cc2n1` [Compound 244], the IC50 (commonly the point on the concentration scale where inhibition reaches its midpoint) in assay [1] (setting [5]) was above 10000 nM; in assay [1] (setting [6]), above 10000 nM; in assay [2], 100 to 1000 nM; in assay [3], above 10000 nM. The AC50 in assay [1] (RT-qPCR) is above 10000 nM. Further, the GI50 in assay [4] is above 10000 nM.
For `Cc1nc2c(F)cc(-c3ccc4c(=O)n(C5CCNCC5)cnc4c3)cc2o1` [Compound 245], the IC50 in assay [1] (setting [5]) is 100 to 1000 nM; in assay [1] (setting [6]) it was 100 to 1000 nM; in assay [2] it was below 100 nM; in assay [3], 100 to 1000 nM. The concentration at half-maximal activity (AC50) in assay [1] (RT-qPCR) lay within 100 to 1000 nM. The GI50 in assay [4] lay within 100 to 1000 nM.
Turning to `Cc1cn2cc(-c3ccc4c(=O)n(C5CCN(C)CC5)cnc4c3)c(C)cc2n1` [Compound 246], the IC50 in assay [1] (setting [5]), in assay [1] (setting [6]), in assay [2] and in assay [3] was 1000 to 10000 nM in each case. Moreover, in assay [1] (RT-qPCR), the concentration at half-maximal activity (AC50) was in the range of 1000 to 10000 nM. Moreover, the GI50 in assay [4] lay in the range of 1000 to 10000 nM.
As for `Cc1cn2cc(-c3ccc4c(c3)CCN(C3CCNCC3)C4=O)cc(F)c2n1` [Compound 247], the half-maximal inhibitory concentration (IC50) in assay [1] (setting [5]) was 1000 to 10000 nM; in assay [1] (setting [6]), 1000 to 10000 nM; in assay [2], below 100 nM; in assay [3], 1000 to 10000 nM. Also, in assay [1] (RT-qPCR), the AC50 fell in the range of 1000 to 10000 nM. The GI50 in assay [4] lay in the range of 100 to 1000 nM.
`Cc1cn2cc(-c3ccc4c(=O)n(C5CCNCC5)ncc4c3)cc(F)c2n1` [Compound 248]: the IC50 in assay [1] (setting [5]) is 100 to 1000 nM; in assay [1] (setting [6]) it was below 100 nM; in assay [2], below 100 nM; in assay [3] it was 100 to 1000 nM. The AC50 in assay [1] (RT-qPCR) is below 100 nM. Moreover, in assay [4], the GI50 was below 100 nM.
As for `Cn1cc2cc(-c3ccc4c(=O)n(C5CCNCC5)ncc4c3)cc(F)c2n1` [Compound 249], the IC50 in assay [1] (setting [5]), in assay [1] (setting [6]), in assay [2] and in assay [3] was 1000 to 10000 nM each time. The half-maximal activity concentration (AC50) in assay [1] (RT-qPCR) was 1000 to 10000 nM. For the same molecule, the 50% growth inhibitory concentration (GI50) in assay [4] is 1000 to 10000 nM.
For the molecule `Cc1nc2c(F)cc(-c3ccc4c(=O)n(C5CCNCC5)ncc4c3)cc2o1` [Compound 250], the IC50 in assay [1] (setting [5]) is below 100 nM; in assay [1] (setting [6]) it was below 100 nM; in assay [2], below 100 nM; in assay [3], 100 to 1000 nM. Besides, the AC50 in assay [1] (RT-qPCR) is below 100 nM. Further, the GI50 in assay [4] was below 100 nM.
With `Cc1cc(-c2ccc3c(=O)n(C4CCNCC4)ncc3c2)cc2cn(C)nc12` [Compound 251], the concentration for half-maximal inhibition (IC50) in assay [1] (setting [5]) was 100 to 1000 nM; in assay [1] (setting [6]) it was 100 to 1000 nM; in assay [2], below 100 nM; in assay [3], 100 to 1000 nM. Moreover, the AC50 in assay [1] (RT-qPCR) was in the range of 100 to 1000 nM. Moreover, the GI50 in assay [4] is 1000 to 10000 nM.
Take `Cc1cn2cc(-c3ccc4c(c3)CCN(C3CCNCC3)C4=O)cc(C(F)(F)F)c2n1` [Compound 252]: the IC50 is above 10000 nM in assay [1] (setting [5]), above 10000 nM in assay [1] (setting [6]), 100 to 1000 nM in assay [2] and above 10000 nM in assay [3]. The AC50 in assay [1] (RT-qPCR) is above 10000 nM. Also, in assay [4], the GI50 was in the range of 1000 to 10000 nM.
As for `Cc1nc2c(F)cc(-c3ccc4c(=O)n(C5CCNCC5)ncc4c3)cc2s1` [Compound 253], the IC50 was in the range of 1000 to 10000 nM in assay [1] (setting [5]), 1000 to 10000 nM in assay [1] (setting [6]), 100 to 1000 nM in assay [2] and 1000 to 10000 nM in assay [3]. In addition, the AC50 in assay [1] (RT-qPCR) lay within 1000 to 10000 nM. Also, the GI50 in assay [4] was in the range of 100 to 1000 nM.
